Data reported in ChEMBL document CHEMBL4261615, “Design, synthesis, biological evaluation and cellular imaging of imidazo[4,5-b]pyridine derivatives as potent and selective TAM inhibitors” (Bioorg Med Chem, 2018).
Activity calls are given as the source filed them. The calls are words filed in the database; no cut-off is given here.

Experiments:
[1] = target: T1, Tyrosine-protein kinase receptor TYRO3 (Homo sapiens) (UniProt Q06418); assay: Inhibition of recombinant GST-tagged human Tyro3 (451 to 890 residues) cytoplasmic domain expressed in Baculovirus expression system using poly (Glu-Ala-Tyr) peptide as substrate after 1.5 hrs by ELISA
T1 sequence (whole entry): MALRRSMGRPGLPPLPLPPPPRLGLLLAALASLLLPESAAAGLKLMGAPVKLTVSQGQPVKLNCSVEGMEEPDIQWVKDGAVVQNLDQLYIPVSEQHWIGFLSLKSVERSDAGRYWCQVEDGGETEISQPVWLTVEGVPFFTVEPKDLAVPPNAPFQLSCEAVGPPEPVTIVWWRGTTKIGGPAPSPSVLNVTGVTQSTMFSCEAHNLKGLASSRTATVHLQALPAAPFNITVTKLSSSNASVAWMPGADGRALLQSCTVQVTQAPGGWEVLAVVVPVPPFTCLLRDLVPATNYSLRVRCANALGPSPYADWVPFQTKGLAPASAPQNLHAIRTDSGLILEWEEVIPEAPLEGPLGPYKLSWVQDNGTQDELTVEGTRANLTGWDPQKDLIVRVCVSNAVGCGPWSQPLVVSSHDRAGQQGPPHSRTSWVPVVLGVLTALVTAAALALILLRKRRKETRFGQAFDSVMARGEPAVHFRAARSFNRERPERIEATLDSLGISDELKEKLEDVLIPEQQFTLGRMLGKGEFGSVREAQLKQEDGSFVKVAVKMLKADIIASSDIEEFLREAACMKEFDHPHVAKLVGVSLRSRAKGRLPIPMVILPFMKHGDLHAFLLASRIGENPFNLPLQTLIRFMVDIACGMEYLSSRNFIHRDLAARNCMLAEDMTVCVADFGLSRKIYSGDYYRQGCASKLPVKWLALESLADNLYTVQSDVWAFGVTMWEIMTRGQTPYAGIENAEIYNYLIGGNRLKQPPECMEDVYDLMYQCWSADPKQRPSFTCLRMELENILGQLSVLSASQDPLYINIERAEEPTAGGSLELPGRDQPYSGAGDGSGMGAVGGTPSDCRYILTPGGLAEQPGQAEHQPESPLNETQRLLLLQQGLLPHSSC

[2] = target: Serine/threonine-protein kinase B-raf (Homo sapiens) (UniProt P15056); assay: Binding affinity to wild-type human partial length BRAF (S429 to E741 residues) expressed in mammalian expression system assessed as fraction of unbound kinase to substrate at 1 uM after 1 hr by KinomeScan assay
[3] = target: T1, Tyrosine-protein kinase receptor TYRO3 (Homo sapiens); assay: Binding affinity to wild-type human partial length TYRO3 (S497 to T814 residues) expressed in bacterial expression system assessed as fraction of unbound kinase to substrate at 10 uM after 1 hr by KinomeScan assay
A549 = assay: Antiproliferative activity against human A549 cells after 72 hrs by CellTiter-Glo assay; format: functional, cell-based
RT-112 = assay: Antiproliferative activity against human RT112 cells after 72 hrs by CellTiter-Glo assay; format: functional, cell-based
[4] = target: Epidermal growth factor receptor (Homo sapiens) (UniProt P00533); assay: Binding affinity to partial length wild type human EGFR (R669 to V1011 residues) expressed in bacterial expression system assessed as fraction of unbound kinase to substrate at 1 uM after 1 hr by KinomeScan assay
[5] = target: T1, Tyrosine-protein kinase receptor TYRO3 (Homo sapiens); assay: Binding affinity to wild-type human partial length TYRO3 (S497 to T814 residues) expressed in bacterial expression system assessed as fraction of unbound kinase to substrate at 0.1 uM after 1 hr by KinomeScan assay
[6] = target: Serine/threonine-protein kinase B-raf (Homo sapiens) (UniProt P15056); assay: Binding affinity to wild-type human partial length BRAF (S429 to E741 residues) expressed in mammalian expression system assessed as fraction of unbound kinase to substrate at 10 uM after 1 hr by KinomeScan assay
[7] = target: Glycogen synthase kinase-3 beta (Homo sapiens) (UniProt P49841); assay: Binding affinity to full length wild type human GSK3beta (M1 to T433 residues) expressed in mammalian expression system assessed as fraction of unbound kinase to substrate at 10 uM after 1 hr by KinomeScan assay
[8] = target: Glycogen synthase kinase-3 beta (Homo sapiens) (UniProt P49841); assay: Binding affinity to full length wild type human GSK3beta (M1 to T433 residues) expressed in mammalian expression system assessed as fraction of unbound kinase to substrate at 0.1 uM after 1 hr by KinomeScan assay
[9] = target: T2, Tyrosine-protein kinase Mer (Homo sapiens) (UniProt Q12866); assay: Inhibition of recombinant GST-tagged human Mer (578 to 872 residues) cytoplasmic domain expressed in Baculovirus system using poly (Glu-Ala-Tyr) peptide as substrate after 1.5 hrs by ELISA
T2 sequence (whole entry): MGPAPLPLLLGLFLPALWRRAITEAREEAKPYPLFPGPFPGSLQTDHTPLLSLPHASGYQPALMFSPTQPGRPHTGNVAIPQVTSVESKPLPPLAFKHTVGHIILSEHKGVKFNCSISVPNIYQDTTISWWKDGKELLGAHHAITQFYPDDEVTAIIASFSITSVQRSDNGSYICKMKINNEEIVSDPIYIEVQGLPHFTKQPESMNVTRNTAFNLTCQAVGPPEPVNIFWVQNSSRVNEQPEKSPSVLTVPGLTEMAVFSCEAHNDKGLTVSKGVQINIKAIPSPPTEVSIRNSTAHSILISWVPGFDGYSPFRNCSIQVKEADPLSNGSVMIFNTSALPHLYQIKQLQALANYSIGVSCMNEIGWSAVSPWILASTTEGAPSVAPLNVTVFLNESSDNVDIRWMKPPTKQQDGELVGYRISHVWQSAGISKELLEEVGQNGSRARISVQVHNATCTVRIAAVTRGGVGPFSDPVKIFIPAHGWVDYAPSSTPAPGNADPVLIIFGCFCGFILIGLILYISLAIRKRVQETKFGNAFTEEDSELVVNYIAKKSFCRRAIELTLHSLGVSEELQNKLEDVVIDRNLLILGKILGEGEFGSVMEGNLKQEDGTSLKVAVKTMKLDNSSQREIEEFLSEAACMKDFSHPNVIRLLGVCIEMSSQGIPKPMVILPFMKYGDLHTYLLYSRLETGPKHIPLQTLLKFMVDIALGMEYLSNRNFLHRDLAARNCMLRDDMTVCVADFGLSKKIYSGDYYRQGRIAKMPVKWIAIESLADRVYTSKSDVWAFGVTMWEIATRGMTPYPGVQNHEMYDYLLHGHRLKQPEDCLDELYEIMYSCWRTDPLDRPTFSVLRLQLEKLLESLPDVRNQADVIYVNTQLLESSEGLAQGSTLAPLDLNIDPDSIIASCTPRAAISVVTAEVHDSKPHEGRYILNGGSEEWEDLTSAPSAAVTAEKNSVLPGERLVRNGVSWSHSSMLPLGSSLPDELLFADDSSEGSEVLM

[10] = target: Hepatocyte growth factor receptor (Homo sapiens) (UniProt P08581); assay: Binding affinity to human MET (D1010 to S1367 residues) expressed in bacterial expression system assessed as fraction of unbound kinase to substrate at 1 uM after 1 hr by KinomeScan assay
Sequence of Hepatocyte growth factor receptor (Homo sapiens) (P08581 whole entry, the tested form may be a part): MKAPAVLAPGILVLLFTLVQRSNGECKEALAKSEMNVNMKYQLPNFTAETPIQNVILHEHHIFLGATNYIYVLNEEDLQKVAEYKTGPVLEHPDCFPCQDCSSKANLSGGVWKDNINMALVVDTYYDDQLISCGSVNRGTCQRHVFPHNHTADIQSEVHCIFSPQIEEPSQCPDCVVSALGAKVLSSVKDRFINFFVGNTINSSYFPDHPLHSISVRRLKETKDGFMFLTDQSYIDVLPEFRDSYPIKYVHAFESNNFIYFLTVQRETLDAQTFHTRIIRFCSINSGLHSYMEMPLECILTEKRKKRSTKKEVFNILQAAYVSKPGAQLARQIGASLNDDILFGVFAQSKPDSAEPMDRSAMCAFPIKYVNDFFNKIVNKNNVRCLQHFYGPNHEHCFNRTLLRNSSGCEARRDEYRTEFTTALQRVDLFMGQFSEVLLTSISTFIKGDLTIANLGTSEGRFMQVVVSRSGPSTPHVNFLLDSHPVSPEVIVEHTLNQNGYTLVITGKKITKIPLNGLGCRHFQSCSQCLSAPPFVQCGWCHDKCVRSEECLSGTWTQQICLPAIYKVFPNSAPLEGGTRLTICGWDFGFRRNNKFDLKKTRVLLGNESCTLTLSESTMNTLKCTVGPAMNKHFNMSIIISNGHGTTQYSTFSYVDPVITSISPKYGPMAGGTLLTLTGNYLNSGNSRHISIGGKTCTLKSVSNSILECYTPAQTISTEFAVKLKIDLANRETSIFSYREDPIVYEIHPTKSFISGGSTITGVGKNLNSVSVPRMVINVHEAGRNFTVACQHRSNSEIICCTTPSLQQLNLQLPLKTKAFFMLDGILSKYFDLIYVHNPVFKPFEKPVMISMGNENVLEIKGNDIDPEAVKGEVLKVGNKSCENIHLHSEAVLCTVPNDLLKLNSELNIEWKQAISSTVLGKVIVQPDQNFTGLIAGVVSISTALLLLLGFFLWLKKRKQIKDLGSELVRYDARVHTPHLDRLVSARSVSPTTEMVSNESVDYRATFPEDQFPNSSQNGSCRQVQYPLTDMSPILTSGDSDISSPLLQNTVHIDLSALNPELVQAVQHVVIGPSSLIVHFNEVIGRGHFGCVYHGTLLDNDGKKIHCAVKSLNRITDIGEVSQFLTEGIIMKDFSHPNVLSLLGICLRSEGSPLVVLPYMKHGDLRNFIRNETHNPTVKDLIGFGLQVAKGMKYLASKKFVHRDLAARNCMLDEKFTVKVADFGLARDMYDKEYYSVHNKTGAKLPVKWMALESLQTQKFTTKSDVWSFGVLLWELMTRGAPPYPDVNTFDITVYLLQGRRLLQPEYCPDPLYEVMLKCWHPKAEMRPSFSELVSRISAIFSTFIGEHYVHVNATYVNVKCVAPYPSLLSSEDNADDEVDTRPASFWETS

Sequence of Glycogen synthase kinase-3 beta (Homo sapiens) (P49841 whole entry, looked up, the tested form may be a part): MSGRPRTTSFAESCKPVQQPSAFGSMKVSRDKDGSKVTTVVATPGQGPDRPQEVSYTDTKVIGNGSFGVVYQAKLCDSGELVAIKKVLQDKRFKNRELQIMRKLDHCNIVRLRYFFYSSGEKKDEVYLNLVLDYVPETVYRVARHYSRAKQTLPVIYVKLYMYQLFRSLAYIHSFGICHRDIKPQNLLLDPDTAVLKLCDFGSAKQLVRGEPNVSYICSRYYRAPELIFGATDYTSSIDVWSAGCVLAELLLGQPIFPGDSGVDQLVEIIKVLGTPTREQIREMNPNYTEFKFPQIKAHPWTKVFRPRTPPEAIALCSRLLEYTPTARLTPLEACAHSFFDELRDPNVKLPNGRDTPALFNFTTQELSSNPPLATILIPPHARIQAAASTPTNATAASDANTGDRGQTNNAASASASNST
Sequence of Serine/threonine-protein kinase B-raf (Homo sapiens) (P15056 whole entry, the tested form may be a part): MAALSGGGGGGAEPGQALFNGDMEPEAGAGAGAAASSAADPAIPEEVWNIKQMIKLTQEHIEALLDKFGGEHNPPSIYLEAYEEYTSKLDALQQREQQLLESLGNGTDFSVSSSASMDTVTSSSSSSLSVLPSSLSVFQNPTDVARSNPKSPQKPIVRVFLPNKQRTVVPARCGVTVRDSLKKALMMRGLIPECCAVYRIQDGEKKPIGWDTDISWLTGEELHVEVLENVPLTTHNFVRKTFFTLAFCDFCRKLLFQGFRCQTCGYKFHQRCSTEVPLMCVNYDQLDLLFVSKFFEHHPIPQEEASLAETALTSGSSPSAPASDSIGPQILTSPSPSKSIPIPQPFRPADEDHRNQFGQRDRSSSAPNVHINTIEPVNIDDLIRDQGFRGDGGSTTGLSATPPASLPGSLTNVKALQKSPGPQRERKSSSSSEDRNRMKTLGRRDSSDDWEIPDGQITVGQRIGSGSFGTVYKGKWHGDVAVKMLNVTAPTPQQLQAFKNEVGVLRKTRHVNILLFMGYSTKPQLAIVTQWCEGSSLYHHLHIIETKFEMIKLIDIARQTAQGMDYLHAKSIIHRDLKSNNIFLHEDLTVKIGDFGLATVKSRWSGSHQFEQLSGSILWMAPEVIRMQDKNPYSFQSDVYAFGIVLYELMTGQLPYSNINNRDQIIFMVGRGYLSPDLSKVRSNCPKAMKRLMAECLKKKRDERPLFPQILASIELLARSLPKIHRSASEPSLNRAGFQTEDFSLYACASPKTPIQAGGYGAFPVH
Sequence of Epidermal growth factor receptor (Homo sapiens) (P00533 whole entry, the tested form may be a part): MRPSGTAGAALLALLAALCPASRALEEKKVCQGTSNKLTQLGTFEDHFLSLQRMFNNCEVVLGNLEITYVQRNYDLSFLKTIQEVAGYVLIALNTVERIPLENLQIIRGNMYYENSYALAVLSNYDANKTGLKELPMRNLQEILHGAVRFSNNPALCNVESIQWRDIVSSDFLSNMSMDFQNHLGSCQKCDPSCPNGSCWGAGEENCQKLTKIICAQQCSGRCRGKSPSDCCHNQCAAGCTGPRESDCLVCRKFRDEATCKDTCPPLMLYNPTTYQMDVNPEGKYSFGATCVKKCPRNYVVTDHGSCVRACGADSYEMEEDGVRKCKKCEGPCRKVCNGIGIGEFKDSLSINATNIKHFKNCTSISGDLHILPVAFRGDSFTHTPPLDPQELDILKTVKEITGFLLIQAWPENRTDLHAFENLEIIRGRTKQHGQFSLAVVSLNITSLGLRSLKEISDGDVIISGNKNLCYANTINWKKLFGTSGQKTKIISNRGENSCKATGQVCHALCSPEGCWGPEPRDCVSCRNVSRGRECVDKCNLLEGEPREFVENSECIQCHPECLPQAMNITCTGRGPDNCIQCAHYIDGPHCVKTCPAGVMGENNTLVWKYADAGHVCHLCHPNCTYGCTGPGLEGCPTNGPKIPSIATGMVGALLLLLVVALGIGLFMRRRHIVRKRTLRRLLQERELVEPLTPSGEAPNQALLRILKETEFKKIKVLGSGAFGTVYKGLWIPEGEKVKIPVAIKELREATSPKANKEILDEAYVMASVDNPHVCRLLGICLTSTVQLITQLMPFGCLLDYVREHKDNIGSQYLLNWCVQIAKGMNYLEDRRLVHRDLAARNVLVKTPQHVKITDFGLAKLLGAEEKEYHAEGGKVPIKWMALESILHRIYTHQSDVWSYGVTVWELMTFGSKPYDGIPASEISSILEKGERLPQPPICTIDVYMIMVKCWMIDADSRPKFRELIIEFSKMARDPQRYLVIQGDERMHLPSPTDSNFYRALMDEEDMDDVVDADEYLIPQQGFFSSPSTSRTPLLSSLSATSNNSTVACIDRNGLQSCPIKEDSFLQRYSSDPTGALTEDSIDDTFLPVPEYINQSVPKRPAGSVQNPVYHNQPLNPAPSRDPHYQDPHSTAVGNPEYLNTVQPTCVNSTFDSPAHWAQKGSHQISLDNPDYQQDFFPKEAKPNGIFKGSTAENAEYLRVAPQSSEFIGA

SMILES	inhibition [1]	Activity [2] [%]	Activity [3] [%]	Activity (A549)	Activity (RT-112)	Activity [4] [%]	Activity [5] [%]	Activity [6] [%]	Activity [7] [%]	Activity [8] [%]	inhibition [9]	Activity [10] [%]
Cc1cnc2[nH]cnc2c1Oc1ccc(NC(=O)c2cccn(-c3ccc(F)cc3)c2=O)cc1F	inactive	2	5	inactive	inactive	0	0	18	0	2	inactive	94.5
CC(C)c1nc2c(Oc3ccc(NC(=O)c4cccn(-c5ccc(F)cc5)c4=O)cc3F)ccnc2[nH]1	inactive	8	92.4	inactive	inactive	0	1	43	0	0	Active	96.7
O=C(Nc1ccc(Oc2ccnc3[nH]cnc23)c(F)c1)c1cccn(-c2ccc(F)cc2)c1=O	Active	12	99.8	inactive	inactive	0	17	58	6	0	Active	96
O=C(Nc1ccc(Oc2c(Br)cnc3[nH]cnc23)c(F)c1)c1cccn(-c2ccc(F)cc2)c1=O	inactive	0	10	–	–	0	15	10	0	0	inactive	82
